From PMC5943477, “A Novel Enzyme Portfolio for Red Algal Polysaccharide Degradation in the Marine Bacterium Paraglaciecola hydrolytica S66^T Encoded in a Sizeable Polysaccharide Utilization Locus” (Frontiers in Microbiology, 2018)

How the values were obtained:
Type in all cases: biochemical
Ph1615 (GH117) = target: T1, Ph1615 (GH117) (Paraglaciecola hydrolytica, UniProt A0A136A0T3); test: TLC of hydrolysis products, crude recombinant lysate; conditions: 25 °C overnight, pH 8
T1 construct: gene AX660_11560; full gene without any predicted signal peptide, pET9a-USER vector (octa-His tag), E. coli BL21(DE3) crude lysate
T1 sequence (A0A136A0T3 1-359): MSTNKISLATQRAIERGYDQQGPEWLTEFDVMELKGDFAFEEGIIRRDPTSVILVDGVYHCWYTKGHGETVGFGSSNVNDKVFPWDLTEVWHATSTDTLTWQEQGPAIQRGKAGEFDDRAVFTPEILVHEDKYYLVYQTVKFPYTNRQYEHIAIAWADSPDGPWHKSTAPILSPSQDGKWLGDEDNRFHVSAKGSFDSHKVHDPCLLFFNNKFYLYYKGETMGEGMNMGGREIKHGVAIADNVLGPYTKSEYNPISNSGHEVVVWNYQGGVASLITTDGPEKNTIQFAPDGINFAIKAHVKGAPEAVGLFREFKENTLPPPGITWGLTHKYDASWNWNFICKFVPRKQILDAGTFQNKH

Ph1631 (GH16) = target: T2, Ph1631 (GH16) (Paraglaciecola hydrolytica, UniProt A0A136A0U8); test: TLC of hydrolysis products from agarose, crude recombinant lysate; conditions: 25 °C overnight, pH 8; agarose 0.05% w/v
T2 construct: gene AX660_11645; full gene without any predicted signal peptide, pET22b NdeI/XhoI, E. coli BL21(DE3) crude lysate
T2 sequence (A0A136A0U8 20-293): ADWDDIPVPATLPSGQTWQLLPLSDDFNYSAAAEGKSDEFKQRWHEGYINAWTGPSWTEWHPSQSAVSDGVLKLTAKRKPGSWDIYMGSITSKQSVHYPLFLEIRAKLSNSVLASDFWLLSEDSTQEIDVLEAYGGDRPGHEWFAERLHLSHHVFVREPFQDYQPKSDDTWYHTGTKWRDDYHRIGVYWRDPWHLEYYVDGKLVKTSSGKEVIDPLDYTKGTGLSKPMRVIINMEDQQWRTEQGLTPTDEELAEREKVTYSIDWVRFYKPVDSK

Ph1664 (GH16) = target: T3, Ph1664 (GH16) (Paraglaciecola hydrolytica, UniProt A0A136A0V5); test: FACE (ANTS label) of hydrolysis products from κ-carrageenan and furcellaran, crude recombinant lysate; conditions: 25 °C overnight, pH 8, 300 mM NaCl, 5 mM MgCl2; polysaccharide 0.05% w/v
T3 construct: gene AX660_11805; full gene without any predicted signal peptide, pET9a-USER vector (octa-His tag), E. coli BL21(DE3) crude lysate
T3 sequence (A0A136A0V5 20-322): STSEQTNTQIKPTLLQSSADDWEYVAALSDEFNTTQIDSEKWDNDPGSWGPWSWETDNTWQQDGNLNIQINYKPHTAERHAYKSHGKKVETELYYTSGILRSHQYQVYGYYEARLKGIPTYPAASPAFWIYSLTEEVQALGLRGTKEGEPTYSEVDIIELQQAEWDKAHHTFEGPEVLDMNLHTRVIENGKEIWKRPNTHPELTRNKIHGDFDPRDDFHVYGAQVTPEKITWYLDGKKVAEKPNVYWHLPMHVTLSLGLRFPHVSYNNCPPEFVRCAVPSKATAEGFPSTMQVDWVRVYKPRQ

Ph1675 (GH16) = target: T4, Ph1675 (GH16) (Paraglaciecola hydrolytica, UniProt A0A136A0W8); test: FACE (ANTS label) of hydrolysis products, crude recombinant lysate; conditions: 25 °C overnight, pH 8, lysis buffer with 5 mM CaCl2
T4 construct: gene AX660_11860; full gene without any predicted signal peptide, pET9a-USER vector (octa-His tag), E. coli BL21(DE3) crude lysate
T4 sequence (A0A136A0W8 35-349): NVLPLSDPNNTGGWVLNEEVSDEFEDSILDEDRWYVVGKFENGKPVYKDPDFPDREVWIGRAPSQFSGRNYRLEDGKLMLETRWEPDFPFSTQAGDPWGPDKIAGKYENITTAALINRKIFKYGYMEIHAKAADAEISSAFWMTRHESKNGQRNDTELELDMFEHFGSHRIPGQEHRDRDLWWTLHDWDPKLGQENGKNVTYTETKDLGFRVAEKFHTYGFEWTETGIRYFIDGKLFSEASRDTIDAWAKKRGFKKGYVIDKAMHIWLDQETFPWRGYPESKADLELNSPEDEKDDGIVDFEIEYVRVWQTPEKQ

Ph1657 (GH42-like) = target: T5, Ph1657 (GH42-like) (Paraglaciecola hydrolytica, UniProt A0A136A0V1); test: FACE (AMAC label) of hydrolysis products, crude recombinant lysate; conditions: 25 °C overnight, pH 8, oligosaccharide 2 μg/μL
T5 construct: gene AX660_11775; full gene without any predicted signal peptide, pET9a-USER vector (octa-His tag), E. coli BL21(DE3) crude lysate
T5 sequence (A0A136A0V1 21-810): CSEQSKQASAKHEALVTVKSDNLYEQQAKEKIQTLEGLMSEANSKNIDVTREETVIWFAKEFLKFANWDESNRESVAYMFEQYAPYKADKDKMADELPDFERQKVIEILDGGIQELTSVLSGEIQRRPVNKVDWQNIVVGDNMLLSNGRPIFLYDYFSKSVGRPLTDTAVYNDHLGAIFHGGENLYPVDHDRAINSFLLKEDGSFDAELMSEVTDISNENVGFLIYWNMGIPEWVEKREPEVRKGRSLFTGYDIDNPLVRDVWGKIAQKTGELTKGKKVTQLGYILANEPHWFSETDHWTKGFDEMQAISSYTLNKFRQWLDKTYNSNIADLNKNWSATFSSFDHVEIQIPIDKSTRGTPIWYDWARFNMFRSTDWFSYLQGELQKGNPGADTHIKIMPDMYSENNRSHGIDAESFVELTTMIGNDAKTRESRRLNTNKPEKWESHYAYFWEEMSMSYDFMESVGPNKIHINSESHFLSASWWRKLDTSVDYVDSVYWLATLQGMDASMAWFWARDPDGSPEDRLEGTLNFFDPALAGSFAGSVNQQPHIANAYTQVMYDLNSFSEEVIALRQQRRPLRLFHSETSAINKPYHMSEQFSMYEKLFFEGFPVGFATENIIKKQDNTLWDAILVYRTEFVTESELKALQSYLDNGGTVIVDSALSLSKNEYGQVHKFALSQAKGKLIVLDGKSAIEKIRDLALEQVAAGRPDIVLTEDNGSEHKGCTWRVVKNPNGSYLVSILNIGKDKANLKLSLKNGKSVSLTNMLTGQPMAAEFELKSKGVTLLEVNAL

OC[C@H]1OC(O)[C@H](O)[C@@H](O[C@@H]2O[C@H]3CO[C@@H]([C@@H]2O)[C@@H]3O)[C@H]1O (stereo partly drawn) [neoagarobiose]
TLC of hydrolysis products, crude recombinant lysate (Ph1615 (GH117)): Ph1615 (GH117) was able to hydrolyze neoagarobiose yielding L-AHG and galactose

OC[C@H]1O[C@@H](O[C@H]2[C@H]3OC[C@@H]2O[C@@H](O[C@H]2[C@@H](O)[C@@H](CO)OC(O)[C@@H]2O)[C@H]3O)[C@H](O)[C@@H](O[C@@H]2O[C@H]3CO[C@@H]([C@@H]2O)[C@@H]3O)[C@H]1O (stereo partly drawn) [neoagarotetraose]
TLC of hydrolysis products from agarose, crude recombinant lysate (Ph1631 (GH16)): Ph1631 degraded agarose into primarily neoagarotetraose

O=S(=O)(O)O[C@@H]1[C@H](O[C@H]2O[C@@H]3CO[C@@H]([C@H]3O)[C@H]2O)[C@@H](O)[C@H](O[C@@H]2[C@@H]3OC[C@H]2O[C@H](O[C@H]2[C@@H](OS(=O)(=O)O)[C@@H](CO)OC(O)[C@@H]2O)[C@@H]3O)O[C@@H]1CO (stereo partly drawn) [κ-κ, neo-κ-carratetraose]
FACE (ANTS label) of hydrolysis products from κ-carrageenan and furcellaran, cru (Ph1664 (GH16)): releasing hydrolysis products corresponding to neo-κ-carrabiose (κ), neo-κ-carratetraose (κ-κ)

O=S(=O)(O)O[C@@H]1[C@H](O[C@H]2O[C@@H]3CO[C@@H]([C@H]3O)[C@H]2O)[C@@H](O)C(O)O[C@@H]1CO (stereo partly drawn) [κ, neo-κ-carrabiose]
FACE (ANTS label) of hydrolysis products from κ-carrageenan and furcellaran, cru (Ph1664 (GH16)): releasing hydrolysis products corresponding to neo-κ-carrabiose (κ), neo-κ-carratetraose (κ-κ)

O=S(=O)(O)O[C@@H]1[C@H](O[C@H]2O[C@@H]3CO[C@H]([C@H]2O)[C@H]3O[C@@H]2O[C@H](CO)[C@H](O)[C@H](O[C@H]3O[C@@H]4CO[C@@H]([C@H]4O)[C@H]3O)[C@H]2O)[C@@H](O)C(O)O[C@@H]1CO (stereo partly drawn) [β-κ, β-κ tetrasaccharide]
FACE (ANTS label) of hydrolysis products, crude recombinant lysate (Ph1675 (GH16)): it was found to degrade the substrate into the corresponding β- and κ-carrabiose units | FACE (AMAC label) of hydrolysis products, crude recombinant lysate (Ph1657 (GH42-like)): when tested on a commercial β-κ tetrasaccharide, this substrate was indeed hydrolyzed into (β) and (κ)
